Results on one compound are retold here after ChEMBL document CHEMBL5728688, “Substituted pyridines as TYK2 inhibitors” (2021).

What is called Kd is the free concentration of one partner at which half of the binding sites on the other are occupied at equilibrium, for simple one-to-one binding.

This assay addresses Non-receptor tyrosine-protein kinase TYK2 (Homo sapiens, UniProt P29597). Kind of assay: TYK2 JH2 Domain Binding Assay: DiscoverX's KINOMEscan™ is a popular platform for kinase profiling, frequently used in academic and industry witnessed by publications, therefore we selected this platform as a primary cell-free screening assay to determine the relative binding potency and guide chemistry SAR.Developed by DiscoverX, KINOMEscan™ employs proprietary active-site dependent competition binding assays to determine how compounds bind to kinases. KINOMEscan™ is based on a competition binding assay that quantitatively measures the ability of a compound to compete with an immobilized, active site directed ligand. The assay is performed by combining three components: DNA-tagged kinase; immobilized ligand; and a test compound. […] The liganded beads were blocked with excess biotin and washed with blocking buffer (SeaBlock (Pierce), 1% BSA, 0.05% Tween 20, 1 mM DTT) to remove unbound ligand and to reduce non-specific binding. […] Test compounds were prepared as 111× stocks in 100% DMSO. All test compounds were shipped to DiscoverX in DMSO with concentration of 10 mM. […] Each compound was tested in duplicate. […] The compounds were then diluted directly into the assays such that the final concentration of DMSO was 0.9%. All reactions performed in polypropylene 384-well plate. Each was a final volume of 0.02 ml. […] […].

Chain of Non-receptor tyrosine-protein kinase TYK2 (P29597 whole entry, the tested form may be a part): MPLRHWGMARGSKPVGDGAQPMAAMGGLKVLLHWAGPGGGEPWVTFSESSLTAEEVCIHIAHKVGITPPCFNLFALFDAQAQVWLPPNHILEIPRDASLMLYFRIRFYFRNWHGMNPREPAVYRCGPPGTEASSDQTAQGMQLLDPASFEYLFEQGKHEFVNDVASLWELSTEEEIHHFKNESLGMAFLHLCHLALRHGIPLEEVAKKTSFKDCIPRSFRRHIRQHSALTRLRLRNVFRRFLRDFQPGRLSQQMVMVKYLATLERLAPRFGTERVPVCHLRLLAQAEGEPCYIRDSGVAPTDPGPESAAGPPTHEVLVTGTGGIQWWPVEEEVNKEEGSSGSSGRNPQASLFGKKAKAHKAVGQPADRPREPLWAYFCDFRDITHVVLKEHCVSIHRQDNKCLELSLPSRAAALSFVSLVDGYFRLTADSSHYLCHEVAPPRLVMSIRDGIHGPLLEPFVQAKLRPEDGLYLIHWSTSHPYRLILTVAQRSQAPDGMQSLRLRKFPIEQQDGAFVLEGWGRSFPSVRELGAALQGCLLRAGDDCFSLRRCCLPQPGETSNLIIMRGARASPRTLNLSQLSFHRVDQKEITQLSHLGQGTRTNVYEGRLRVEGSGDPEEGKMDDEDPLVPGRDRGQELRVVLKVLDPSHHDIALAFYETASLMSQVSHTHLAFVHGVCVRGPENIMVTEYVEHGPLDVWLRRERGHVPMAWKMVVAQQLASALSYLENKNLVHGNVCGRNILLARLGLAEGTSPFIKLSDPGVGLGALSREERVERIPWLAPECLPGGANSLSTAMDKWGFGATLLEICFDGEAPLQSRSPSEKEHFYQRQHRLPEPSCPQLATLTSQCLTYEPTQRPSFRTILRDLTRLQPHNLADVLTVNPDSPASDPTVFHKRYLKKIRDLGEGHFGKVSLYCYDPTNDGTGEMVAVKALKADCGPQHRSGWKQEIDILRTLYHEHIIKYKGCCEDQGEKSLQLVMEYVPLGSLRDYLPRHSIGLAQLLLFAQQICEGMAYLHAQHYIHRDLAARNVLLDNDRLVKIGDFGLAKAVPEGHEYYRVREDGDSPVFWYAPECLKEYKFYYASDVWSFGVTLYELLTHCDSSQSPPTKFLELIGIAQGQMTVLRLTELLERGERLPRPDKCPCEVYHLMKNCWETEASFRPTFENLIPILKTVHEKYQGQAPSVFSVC

As to `CNC(=O)c1nnc(N2CCC(C)(C)C2=O)cc1Nc1cccc(-c2ncn(C)n2)c1OC`, the Kd is below 1 nM.
